Our source for the IC50 values is patent US9187472B2 (AbbVie Inc., priority 2012, dated 2015).

Experiment [1] has as its target NAMPT (human, recombinant, C-terminally His-tagged) (Homo sapiens, UniProt P43490). The experiment can be described thus: Time-Resolved Fluorescence Resonance Energy Transfer (TR-FRET) Binding Assay of NAMPT. Particulars: without substrates; 6.8 nM NAMPT, 200 nM probe, 3 hours equilibration. In short, it runs like this: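 11-pt half-log compound series; final 6.8 nM NAMPT, 200 nM OG488 nicotinamide-competitive probe, 1 nM Tb-anti-His Ab, 2% DMSO, HEPES pH 7.5/NaCl/MgCl2/DTT/glycerol buffer. 3 h RT equilibration. Em520/Em495 ratio (Ex 337 nm), control-normalized, 4-parameter fit → IC50.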
Background: In TR-FRET formats the signal depends on donor and acceptor labels being close together.

Another experiment deals with NAMPT (Homo sapiens, UniProt P43490). Nature of the experiment: TR-FRET Binding Assay of NAMPT with PRPP. Particulars: with 200 μM PRPP and 2.5 mM ATP; 2 nM NAMPT, 2 nM probe, 16 hours equilibration. The method in brief: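 TR-FRET probe-displacement binding with 2 nM NAMPT, 2 nM probe and 1 nM Tb-anti-His antibody, run in the presence of 200 μM PRPP and 2.5 mM ATP at 2% DMSO. Equilibrated 16 hours before reading so test compounds could undergo enzymatic modification.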

Another experiment has as its system PC3 cells. The experiment can be described thus: NAMPT Cell Proliferation Assay. The class given is cell-based. Particulars: Homo sapiens, PC-3, 120 h, 5 days incubation, cell viability by Cell Titer Glo. The method in brief: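 IC50 values derive from sigmoidal dose-response fits of percent inhibition of PC3 viability, measured by luminescence after 5 days of compound treatment. Cells (500/well, RPMI containing 10% heat-inactivated FBS) are allowed to attach overnight, and compounds are tested at 10-fold dilutions between 10 μM and 1×10^−5 μM.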
For orientation: ATP-based viability assays read luminescence as a measure of living cells.

Sequence of NAMPT (human, recombinant, C-terminally His-tagged) (P43490 whole entry): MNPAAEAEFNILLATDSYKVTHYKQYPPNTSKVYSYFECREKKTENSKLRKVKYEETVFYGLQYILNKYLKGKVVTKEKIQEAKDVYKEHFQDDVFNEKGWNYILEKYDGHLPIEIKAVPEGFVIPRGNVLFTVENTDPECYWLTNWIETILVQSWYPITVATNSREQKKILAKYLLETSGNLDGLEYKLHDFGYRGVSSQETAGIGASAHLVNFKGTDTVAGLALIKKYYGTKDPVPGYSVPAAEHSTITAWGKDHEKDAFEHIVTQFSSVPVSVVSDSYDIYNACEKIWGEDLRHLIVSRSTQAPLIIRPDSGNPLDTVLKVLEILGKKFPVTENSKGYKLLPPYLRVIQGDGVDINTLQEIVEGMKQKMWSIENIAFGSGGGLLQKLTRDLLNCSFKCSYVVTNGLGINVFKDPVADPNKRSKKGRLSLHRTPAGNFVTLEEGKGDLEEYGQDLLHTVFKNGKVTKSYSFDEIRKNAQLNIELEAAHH
Sequence of NAMPT (P43490 whole entry): as above

On to `O=C(NCc1ccn2ccnc2c1)c1ccc(C2CCN(C(=O)CC3CC3)CC2)cc1` [Example 312, 4-[1-(cyclopropylacetyl)piperidin-4-yl]-N-(imidazo[1,2-a]pyridin-7-ylmethyl)benzamide], for which the figures for the IC50 (in experiment [1]; at NAMPT; in the experiment with PC3 cells) were 165 nM, 0.243 nM and 65 nM, respectively.
The matching figures for `CC(C)OCC1CN(c2ncc(C(=O)NCc3ccn4ccnc4c3)s2)C(=O)O1` (stereo not drawn) [Example 249, N-(imidazo[1,2-a]pyridin-7-ylmethyl)-2-{2-oxo-5-[(propan-2-yloxy)methyl]-1,3-oxazolidin-3-yl}-1,3-thiazole-5-carboxamide]: 817 nM, 0.72 nM and 66.5 nM.
`CC(C)CC(=O)NC1(c2ccc(C(=O)NCc3ccn4ccnc4c3)s2)CCC1` [Example 469, N-(imidazo[1,2-a]pyridin-7-ylmethyl)-5-{1-[(3-methylbutanoyl)amino]cyclobutyl}thiophene-2-carboxamide]: the results for the IC50 (in experiment [1]; on NAMPT; in the experiment with PC3 cells) were above 10000 nM, 0.432 nM and 3380 nM, respectively.
As to `O=C(NCc1ccn2ccnc2c1)c1ccc(C2CCN(C(=O)C3CCS(=O)(=O)CC3)CC2)cc1` [Example 234, 4-{1-[(1,1-dioxidotetrahydro-2H-thiopyran-4-yl)carbonyl]piperidin-4-yl}-N-(imidazo[1,2-a]pyridin-7-ylmethyl)benzamide], the IC50 was determined as 904 nM in experiment [1], 0.736 nM on NAMPT and 105 nM in the experiment with PC3 cells.
The matching figures for `N#Cc1cccc(C(=O)N2CCC(c3ccc(C(=O)NCc4ccn5ccnc5c4)cc3)CC2)c1` [Example 521, 4-[1-(3-cyanobenzoyl)piperidin-4-yl]-N-(imidazo[1,2-a]pyridin-7-ylmethyl)benzamide]: 413 nM, 0.292 nM and 93.5 nM.
The matching figures for `O=C(NCc1ccn2ccnc2c1)Nc1ccc(C2CCN(C(=O)Cc3ccccc3)CC2)cc1` [Example 716, 1-(imidazo[1,2-a]pyridin-7-ylmethyl)-3-{4-[1-(phenylacetyl)piperidin-4-yl]phenyl}urea]: 50.2 nM, 0.607 nM and 21 nM.
The matching figures for `O=C(NCc1ccn2ccnc2c1)Nc1ccc(O[C@@H]2CCN(C(=O)c3ccc(Cl)cc3)C2)cc1` [Example 696, 1-(4-{[(3R)-1-(4-chlorobenzoyl)pyrrolidin-3-yl]oxy}phenyl)-3-(imidazo[1,2-a]pyridin-7-ylmethyl)urea]: 272 nM, 0.725 nM and 667 nM.
On to `O=C(NCc1ccn2ccnc2c1)c1ccc(C2CCN(C(=O)c3c(F)cccc3F)CC2)cc1` [Example 700, 4-[1-(2,6-difluorobenzoyl)piperidin-4-yl]-N-(imidazo[1,2-a]pyridin-7-ylmethyl)benzamide], for which the concentration for half-maximal inhibition (IC50) worked out at 68.4 nM in experiment [1], 1.03 nM at NAMPT and 3.25 nM in the experiment on PC3 cells.
The matching figures for `Cc1ccccc1C(=O)N1CCC(c2ccc(C(=O)NCc3ccn4ccnc4c3)cc2)CC1` [Example 507, N-(imidazo[1,2-a]pyridin-7-ylmethyl)-4-[1-(2-methylbenzoyl)piperidin-4-yl]benzamide]: 121 nM, 0.359 nM and 3.2 nM.
The matching figures for `C[C@@H]1COC(=O)N1c1ncc(C(=O)NCc2ccn3ccnc3c2)s1` [Example 245, N-(imidazo[1,2-a]pyridin-7-ylmethyl)-2-[(4R)-4-methyl-2-oxo-1,3-oxazolidin-3-yl]-1,3-thiazole-5-carboxamide]: 2890 nM, 0.502 nM and 5500 nM.
Consider `O=C(NCc1ccn2ccnc2c1)c1ccc(C2CN(C(=O)c3cccc(C(F)(F)F)c3)C2)cc1` [Example 671, N-(imidazo[1,2-a]pyridin-7-ylmethyl)-4-{1-[3-(trifluoromethyl)benzoyl]azetidin-3-yl}benzamide], for which the IC50 in experiment [1] worked out at 611 nM; at NAMPT, 1.06 nM; in the experiment with PC3 cells, 684 nM.
The matching figures for `Cn1cccc1C(=O)N1CCC(c2ccc(C(=O)NCc3ccn4ccnc4c3)cc2)C1` (stereo not drawn) [Example 606, N-(imidazo[1,2-a]pyridin-7-ylmethyl)-4-{1-[(1-methyl-1H-pyrrol-2-yl)carbonyl]pyrrolidin-3-yl}benzamide]: 281 nM, 0.169 nM and 34.8 nM.
The matching figures for `O=C(NCc1ccn2ccnc2c1)c1ccc(C2CCN(C(=O)CC(F)(F)F)CC2)s1` [Example 572, N-(imidazo[1,2-a]pyridin-7-ylmethyl)-5-[1-(3,3,3-trifluoropropanoyl)piperidin-4-yl]thiophene-2-carboxamide]: 51.6 nM, 0.403 nM and 6.66 nM.
The matching figures for `O=C(NCc1ccn2ccnc2c1)c1ccc(-c2cnn(CC3CCOCC3)c2)o1` [Example 480, N-(imidazo[1,2-a]pyridin-7-ylmethyl)-5-[1-(tetrahydro-2H-pyran-4-ylmethyl)-1H-pyrazol-4-yl]furan-2-carboxamide]: 181 nM, 0.342 nM and 7.43 nM.
In the case of `CC(=O)Nc1ccc(NC(=O)Nc2ccc3nccn3c2)cc1` [Example 27], the figures for the IC50 (in experiment [1]; on NAMPT; in the experiment with PC3 cells) were 756 nM, 0.658 nM and 7540 nM, respectively.
The matching figures for `CC(C)Cn1cc(-c2ccc(C(=O)NCc3ccc4nccn4c3)o2)cn1` [Example 120, N-(imidazo[1,2-a]pyridin-6-ylmethyl)-5-[1-(2-methylpropyl)-1H-pyrazol-4-yl]furan-2-carboxamide]: 73.9 nM, 0.367 nM and 90.8 nM.
The matching figures for `O=C(NCc1ccn2ccnc2c1)Nc1ccc(C2CCN(C(=O)c3ccc(F)cc3)CC2)cc1` [Example 721, 1-{4-[1-(4-fluorobenzoyl)piperidin-4-yl]phenyl}-3-(imidazo[1,2-a]pyridin-7-ylmethyl)urea]: 125 nM, 1.21 nM and 30.7 nM.
The matching figures for `O=C(NCc1ccn2ccnc2c1)c1ccc(C2CCN(C(=O)c3cccc(Cl)c3)C2)s1` (stereo not drawn) [Example 779, 5-[1-(3-chlorobenzoyl)pyrrolidin-3-yl]-N-(imidazo[1,2-a]pyridin-7-ylmethyl)thiophene-2-carboxamide]: 14.2 nM, 0.603 nM and 0.499 nM.
As to `O=C(CC1CCCC1)Nc1ccc(NC(=O)NCc2cn3ccnc3cn2)cc1` [Example 681, 2-cyclopentyl-N-(4-{[(imidazo[1,2-a]pyrazin-6-ylmethyl)carbamoyl]amino}phenyl)acetamide], the IC50 was found to be 27.6 nM in experiment [1], 2 nM on NAMPT and 145 nM in the experiment on PC3 cells.
In the case of `O=C(NCc1ccc2nccn2c1)c1cnc(N(CC2CCCO2)C(=O)CCc2nccs2)s1` (stereo not drawn) [Example 136, N-(imidazo[1,2-a]pyridin-6-ylmethyl)-2-{(tetrahydrofuran-2-ylmethyl)[3-(1,3-thiazol-2-yl)propanoyl]amino}-1,3-thiazole-5-carboxamide], the results for the 50% inhibitory concentration (IC50) (in experiment [1]; at NAMPT; with PC3 cells) were 72.7 nM, 0.512 nM and 3.05 nM, respectively.
The matching figures for `O=C(NCc1ccn2ccnc2c1)c1ccc(C2CCN(C(=O)c3ccno3)CC2)s1` [Example 264, N-(imidazo[1,2-a]pyridin-7-ylmethyl)-5-[1-(1,2-oxazol-5-ylcarbonyl)piperidin-4-yl]thiophene-2-carboxamide]: 40.4 nM, 0.412 nM and 6.69 nM.
The matching figures for `CC(C)(O)Cn1cc(-c2ccc(C(=O)NCc3ccc4ncnn4c3)s2)cn1` [Example 621, 5-[1-(2-hydroxy-2-methylpropyl)-1H-pyrazol-4-yl]-N-([1,2,4]triazolo[1,5-a]pyridin-6-ylmethyl)thiophene-2-carboxamide]: 114 nM, 5.42 nM and 25.3 nM.
Regarding `O=C(NCc1ccn2ccnc2c1)c1ccc(C2CCN(C(=O)c3cccc(Cl)c3)CC2)cc1` [Example 527, 4-[1-(3-chlorobenzoyl)piperidin-4-yl]-N-(imidazo[1,2-a]pyridin-7-ylmethyl)benzamide], the values for the IC50 (in experiment [1]; at NAMPT; in the experiment on PC3 cells) were 141 nM, 0.265 nM and 59.8 nM, respectively.
The matching figures for `CC(C)(O)Cn1cc(-c2ccc(C(=O)NCc3ccn4ccnc4c3)s2)cn1` [Example 182, 5-[1-(2-hydroxy-2-methylpropyl)-1H-pyrazol-4-yl]-N-(imidazo[1,2-a]pyridin-7-ylmethyl)thiophene-2-carboxamide]: 139 nM, 0.4 nM and 1.37 nM.
Regarding `O=C(CC1CCCC1)Nc1ccc(CNC(=O)c2ccc3nccn3c2)cc1` [Example 84, N-{4-[(cyclopentylacetyl)amino]benzyl}imidazo[1,2-a]pyridine-6-carboxamide], the IC50 in experiment [1] turned out to be 1670 nM; at NAMPT, 10.9 nM; with PC3 cells, 762 nM.

Broadly, the IC50 is the concentration needed to halve the response being measured.
